Results from patent US20210253575A1, “PYRROLIDINE AMINE COMPOUNDS FOR THE TREATMENT OF AUTOIMMUNE DISEASE” (Hoffmann-La Roche Inc., priority 2018, published 2021).

Molecular target: T1, human TLR9 (Homo sapiens, UniProt Q9NR96)
T1 sequence (Q9NR96 26-1032): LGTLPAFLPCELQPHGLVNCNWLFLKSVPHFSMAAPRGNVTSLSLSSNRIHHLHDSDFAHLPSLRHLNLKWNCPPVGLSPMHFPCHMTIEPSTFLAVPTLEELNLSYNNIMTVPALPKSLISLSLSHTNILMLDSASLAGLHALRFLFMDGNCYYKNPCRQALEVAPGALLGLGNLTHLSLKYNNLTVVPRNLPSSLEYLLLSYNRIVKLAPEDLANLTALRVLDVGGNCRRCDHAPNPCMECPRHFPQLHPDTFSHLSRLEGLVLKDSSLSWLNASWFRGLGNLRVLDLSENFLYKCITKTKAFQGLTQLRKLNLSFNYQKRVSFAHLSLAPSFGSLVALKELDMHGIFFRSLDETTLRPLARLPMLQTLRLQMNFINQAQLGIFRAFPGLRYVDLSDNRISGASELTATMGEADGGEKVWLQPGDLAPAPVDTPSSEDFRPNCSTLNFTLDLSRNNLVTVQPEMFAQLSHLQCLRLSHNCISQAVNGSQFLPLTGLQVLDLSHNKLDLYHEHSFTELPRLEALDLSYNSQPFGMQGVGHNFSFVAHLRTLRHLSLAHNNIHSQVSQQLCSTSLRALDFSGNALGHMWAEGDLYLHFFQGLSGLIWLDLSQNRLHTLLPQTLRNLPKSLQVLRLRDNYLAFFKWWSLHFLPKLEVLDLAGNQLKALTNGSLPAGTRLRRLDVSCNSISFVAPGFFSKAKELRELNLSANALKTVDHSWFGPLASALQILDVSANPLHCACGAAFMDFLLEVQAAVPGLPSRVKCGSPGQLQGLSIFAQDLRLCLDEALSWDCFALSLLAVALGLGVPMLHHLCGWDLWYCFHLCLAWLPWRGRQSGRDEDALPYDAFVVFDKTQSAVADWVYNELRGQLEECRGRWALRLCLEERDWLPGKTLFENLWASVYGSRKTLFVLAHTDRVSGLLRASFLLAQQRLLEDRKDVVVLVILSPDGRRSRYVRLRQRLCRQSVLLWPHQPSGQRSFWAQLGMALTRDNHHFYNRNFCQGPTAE
Assay: HEK293-Blue-hTLR-9 cells assay (SEAP reporter, ODN2006 stimulation)
Format: cell-based
Conditions: HEK293-Blue-hTLR9 cells, ODN2006 ligand, 20 hrs incubation
Method: The following tests were carried out in order to determine the activity of the compounds of formula (I) in HEK293-Blue-hTLR-7/8/9 cells assay.
HEK293-Blue-hTLR-9 Cells Assay:
A stable HEK293-Blue-hTLR-9 cell line was purchased from InvivoGen (Cat. #: hkb-htlr9, San Diego, Calif., USA). These cells were originally designed for studying the stimulation of human TLR9 by monitoring the activation of NF-κB. A SEAP (secreted embryonic alkaline phosphatase) reporter gene was placed under the control of the IFN-β minimal promoter fused to five NF-κB and AP-1-binding sites. The SEAP was induced by activating NF-κB and AP-1 via stimulating HEK-Blue hTLR9 cells with TLR9 ligands. Therefore the reporter expression was declined by TLR9 antagonist under the stimulation of a ligand, such as ODN2006 (Cat. #: tlrl-2006-1, Invivogen, San Diego, Calif., USA), for incubation of 20 hrs. The cell culture supernatant SEAP reporter activity was determined using QUANTI-Blue™ kit (Cat. #: rep-qb1, Invivogen, San Diego, Calif., USA) at a wavelength of 640 nm, a detection medium that turns purple or blue in the presence of alkaline phosphatase.
HEK293-Blue-hTLR9 cells were incubated at a density of 250,000˜450,000 cells/mL in a volume of 170 μL in a 96-well plate in Dulbecco's Modified Eagle's medium (DMEM) containing 4.5 g/L glucose, 50 U/mL penicillin, […], […], 2 mM L-glutamine, 10% (v/v) heat-inactivated fetal bovine serum with addition of 20 μL test compound in a serial dilution in the presence of final DMSO at 1% and 10 μL of 20 uM ODN2006 in above DMEM, perform incubation under 37° C. in a CO2incubator for 20 hrs. Then 20 μL of the superatant from each well was incubated with 180 μL Quanti-blue substrate solution at 37° C. for 2 hrs and the absorbance was read at 620˜655 nm using a spectrophotometer. The signalling pathway that TLR9 activation leads to downstream NF-κB activation has been widely accepted, and therefore similar reporter assay was modified for evaluating TLR9 antagonist.

SMILES	IC50 [nM]
N#Cc1ccc(N2CC(CN3CCC4(CCNCC4)CC3)C3(CC3)C2)c2nccnc12 (stereo not shown) [Example 16, 8-[7-(3,9-Diazaspiro[5.5]undecan-3-ylmethyl)-5-azaspiro[2.4]heptan-5-yl]quinoxaline-5-carbonitrile]	50
C[C@H]1CN(c2ccc(C#N)c3nccnc23)C[C@@H]1CN1CCC2(CCNCC2)CC1 [Example 17, 8-[(3S,4R)-3-(3,9-diazaspiro[5.5]undecan-3-ylmethyl)-4-methyl-pyrrolidin-1-yl]quinoxaline-5-carbonitrile]	134
N#Cc1ccc(N2CC(CN3C[C@H]4CNC[C@H]4C3)C3(CC3)C2)c2nccnc12 (stereo partly drawn) [Example 18, 8-[7-[[(3aR,6aS)-2,3,3a,4,6,6a-hexahydro-H-pyrrolo[3,4-c]pyrrol-5-yl]methyl]-5-azaspiro[2.4]heptan-5-yl]quinoxaline-5-carbonitrile]	97
FC(F)(F)c1ccc(N2CC(CN3CCNCC3)C3(CC3)C2)c2nccnc12 (stereo not shown) [Example 20, 5-[7-(Piperazin-1-ylmethyl)-5-azaspiro[2.4]heptan-5-yl]-8-(trifluoromethyl)quinoxaline]	5640
N#Cc1ccc(N2CC(CN3CCC4(CCCNC4)C3)C3(CC3)C2)c2nccnc12 (stereo not shown) [Example 22, 8-[7-(2,9-Diazaspiro[4.5]decan-2-ylmethyl)-5-azaspiro[2.4]heptan-5-yl]quinoxaline-5-carbonitrile]	153
C[C@H]1CN(c2ccc(C#N)c3ncccc23)C[C@@H]1CN1CCC2(CCNCC2)CC1 [Example 23, 5-[(3S,4R)-3-(3,9-diazaspiro[5.5]undecan-3-ylmethyl)-4-methyl-pyrrolidin-1-yl]quinoline-8-carbonitrile]	45
N#Cc1ccc(N2CC(CN3CC4(CCCNC4)C3)C3(CC3)C2)c2nccnc12 (stereo not shown) [Example 24, 8-[7-(2,8-Diazaspiro[3.5]nonan-2-ylmethyl)-5-azaspiro[2.4]heptan-5-yl]quinoxaline-5-carbonitrile]	82
N#Cc1ccc(N2CC(CN3C4CCC3CC(N)C4)C3(CC3)C2)c2nccnc12 (stereo not shown) [Example 25, 8-[7-[(3-Amino-8-azabicyclo[3.2.1]octan-8-yl)methyl]-5-azaspiro[2.4]heptan-5-yl]quinoxaline-5-carbonitrile]	75
N#Cc1ccc(N2C[C@H](CN3CCC(N)CC3)[C@@H](C(F)(F)F)C2)c2nccnc12 [Example 26, 8-[(3S,4R)-3-[(4-Amino-1-piperidyl)methyl]-4-(trifluoromethyl)pyrrolidin-1-yl]quinoxaline-5-carbonitrile]	258
C[C@H]1CN(c2ccc(C#N)c3nccnc23)C[C@@H]1CN1CCC2(CCNC2)C1 (stereo partly drawn) [Example 30, 8-[(3S,4R)-3-(2,7-diazaspiro[4.4]nonan-2-ylmethyl)-4-methyl-pyrrolidin-1-yl]quinoxaline-5-carbonitrile]	307
FC(F)(F)c1ccc(N2CC(CN3CCC4(CCNCC4)CC3)C3(CC3)C2)c2nccnc12 (stereo not shown) [Example 31, 3-[[5-[8-(Trifluoromethyl)quinoxalin-5-yl]-5-azaspiro[2.4]heptan-7-yl]methyl]-3,9-diazaspiro[5.5]undecane]	383
N#Cc1ccc(N2CC(CN3CCC4(CCNCC4)C3)C3(CC3)C2)c2nccnc12 (stereo not shown) [Example 32, 8-[7-(2,8-Diazaspiro[4.5]decan-2-ylmethyl)-5-azaspiro[2.4]heptan-5-yl]quinoxaline-5-carbonitrile]	80
C[C@H]1CN(c2ccc(C#N)c3ncccc23)C[C@@H]1CN1CCC2(CCNC2)C1 (stereo partly drawn) [Example 35, 5-[(3S,4R)-3-(2,7-diazaspiro[4.4]nonan-2-ylmethyl)-4-methyl-pyrrolidin-1-yl]quinoline-8-carbonitrile]	50
N#Cc1ccc(N2CCC(CN3CCC4(CCNCC4)CC3)C2)c2nccnc12 (stereo not shown) [Example 37, 8-[3-(3,9-Diazaspiro[5.5]undecan-3-ylmethyl)pyrrolidin-1-yl]quinoxaline-5-carbonitrile]	32
N#Cc1ccc(N2CC(CNC3CCCNCC3)C3(CC3)C2)c2nccnc12 (stereo not shown) [Example 39, 8-[7-[(Azepan-4-ylamino)methyl]-5-azaspiro[2.4]heptan-5-yl]quinoxaline-5-carbonitrile]	97
C[C@@H]1CN(c2ccc(C(F)(F)F)c3nccnc23)C[C@H]1CNC1CCCNCC1 (stereo partly shown) [Example 40]	685
FC(F)(F)c1ccc(N2CC(CN3C[C@H]4CNC[C@H]4C3)C3(CC3)C2)c2nccnc12 (stereo partly drawn) [Example 41, 5-[7-[[(3aR,6aS)-2,3,3a,4,6,6a-hexahydro-H-pyrrolo[3,4-c]pyrrol-5-yl]methyl]-5-azaspiro[2.4]heptan-5-yl]-8-(trifluoromethyl)quinoxaline]	1200
N#Cc1ccc(N2CC(CN3CC4(CC(N)C4)C3)C3(CC3)C2)c2nccnc12 (stereo not shown) [Example 42, 8-[7-[(6-Amino-2-azaspiro[3.3]heptan-2-yl)methyl]-5-azaspiro[2.4]heptan-5-yl]quinoxaline-5-carbonitrile]	153
N#Cc1ccc(N2CC(CN3CCC4(CCNC4)C3)C3(CC3)C2)c2cccnc12 (stereo not shown) [Example 43, 5-[7-(2,7-Diazaspiro[4.4]nonan-2-ylmethyl)-5-azaspiro[2.4]heptan-5-yl]quinoline-8-carbonitrile]	62
N#Cc1ccc(N2C[C@H](CN3CCC4(CCCNC4)CC3)[C@@H](C(F)(F)F)C2)c2nccnc12 [Example 45, 8-[(3S,4R)-3-(2,9-diazaspiro[5.5]undecan-9-ylmethyl)-4-(trifluoromethyl)pyrrolidin-1-yl]quinoxaline-5-carbonitrile]	224
N#Cc1ccc(N2C[C@H](CN3CCC4(CCNCC4)C3)[C@@H](C(F)(F)F)C2)c2nccnc12 [Example 46, 8-[(3S,4R)-3-(2,8-diazaspiro[4.5]decan-2-ylmethyl)-4-(trifluoromethyl)pyrrolidin-1-yl]quinoxaline-5-carbonitrile]	275
N#Cc1ccc(N2C[C@H](CN3CC4(CC(N)C4)C3)[C@@H](C(F)(F)F)C2)c2nccnc12 [Example 47, 8-[(3S,4R)-3-[(6-amino-2-azaspiro[3.3]heptan-2-yl)methyl]-4-(trifluoromethyl)pyrrolidin-1-yl]quinoxaline-5-carbonitrile]	177
N#Cc1ccc(N2C[C@H](CN3CC4(CCNCC4)C3)[C@@H](C(F)(F)F)C2)c2nccnc12 [Example 48, 8-[(3S,4R)-3-(2,7-diazaspiro[3.5]nonan-2-ylmethyl)-4-(trifluoromethyl)pyrrolidin-1-yl]quinoxaline-5-carbonitrile]	97
N#Cc1ccc(N2CC(CN3CCC4(CC3)CNCCO4)C3(CC3)C2)c2nccnc12 (stereo not shown) [Example 49, 8-[7-(1-Oxa-4,9-diazaspiro[5.5]undecan-9-ylmethyl)-5-azaspiro[2.4]heptan-5-yl]quinoxaline-5-carbonitrile]	87
N#Cc1ccc(N2CC(CN3CC4CCNCC43)C3(CC3)C2)c2nccnc12 (stereo not shown) [Example 50, 8-[7-(3,8-Diazabicyclo[4.2.0]octan-8-ylmethyl)-5-azaspiro[2.4]heptan-5-yl]quinoxaline-5-carbonitrile]	259
